# Measured values taken from patent US9127040B2, “Regulation of sodium channels by PLUNC proteins” (The University of North Carolina at Chapel Hill, priority 2011, dated 2015).
# “Also recorded” adds a separate entry of the source. Ends that are not written are not given here.
# T1: αβγENaC (Rattus norvegicus, UniProt P37089+P37090+P37091)
# T1 construct: expressed in transfected cells; host or cells: Xenopus laevis oocytes (cRNA injection)
# T1 sequence (P37089 1-698): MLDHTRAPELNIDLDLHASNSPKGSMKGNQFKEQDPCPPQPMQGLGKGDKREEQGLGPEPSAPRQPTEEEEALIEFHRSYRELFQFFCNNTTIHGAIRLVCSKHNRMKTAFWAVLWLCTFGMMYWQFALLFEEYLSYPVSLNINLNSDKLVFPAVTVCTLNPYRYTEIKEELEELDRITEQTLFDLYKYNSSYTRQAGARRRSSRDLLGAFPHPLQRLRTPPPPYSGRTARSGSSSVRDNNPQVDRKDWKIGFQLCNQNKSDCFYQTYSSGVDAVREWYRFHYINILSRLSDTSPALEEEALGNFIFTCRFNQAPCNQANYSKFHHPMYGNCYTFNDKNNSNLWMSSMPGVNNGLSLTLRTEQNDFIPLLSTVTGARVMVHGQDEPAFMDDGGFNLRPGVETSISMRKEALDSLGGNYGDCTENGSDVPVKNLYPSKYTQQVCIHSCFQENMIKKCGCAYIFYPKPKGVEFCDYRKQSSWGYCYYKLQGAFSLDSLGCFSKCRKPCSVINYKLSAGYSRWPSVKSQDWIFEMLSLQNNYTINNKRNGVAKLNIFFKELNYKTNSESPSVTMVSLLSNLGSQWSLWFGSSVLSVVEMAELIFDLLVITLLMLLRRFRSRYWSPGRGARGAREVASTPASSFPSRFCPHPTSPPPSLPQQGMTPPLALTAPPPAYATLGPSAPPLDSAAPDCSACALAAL
# T1 sequence (P37090 1-638): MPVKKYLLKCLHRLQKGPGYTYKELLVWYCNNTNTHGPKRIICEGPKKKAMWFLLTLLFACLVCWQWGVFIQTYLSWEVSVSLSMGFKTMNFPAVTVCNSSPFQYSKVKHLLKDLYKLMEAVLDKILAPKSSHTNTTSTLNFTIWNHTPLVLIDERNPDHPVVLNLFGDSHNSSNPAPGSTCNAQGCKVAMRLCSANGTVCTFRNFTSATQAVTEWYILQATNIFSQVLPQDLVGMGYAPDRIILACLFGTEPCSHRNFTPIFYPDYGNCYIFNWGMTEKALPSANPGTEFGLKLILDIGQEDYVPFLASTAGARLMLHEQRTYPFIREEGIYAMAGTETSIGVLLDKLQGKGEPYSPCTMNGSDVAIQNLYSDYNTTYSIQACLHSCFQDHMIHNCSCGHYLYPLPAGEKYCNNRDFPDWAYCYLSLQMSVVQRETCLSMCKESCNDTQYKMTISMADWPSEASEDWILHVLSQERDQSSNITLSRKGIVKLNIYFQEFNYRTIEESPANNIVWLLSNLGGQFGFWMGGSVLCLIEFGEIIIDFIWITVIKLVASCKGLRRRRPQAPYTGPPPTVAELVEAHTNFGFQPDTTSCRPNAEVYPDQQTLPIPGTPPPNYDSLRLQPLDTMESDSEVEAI
# T1 sequence (P37091 1-650): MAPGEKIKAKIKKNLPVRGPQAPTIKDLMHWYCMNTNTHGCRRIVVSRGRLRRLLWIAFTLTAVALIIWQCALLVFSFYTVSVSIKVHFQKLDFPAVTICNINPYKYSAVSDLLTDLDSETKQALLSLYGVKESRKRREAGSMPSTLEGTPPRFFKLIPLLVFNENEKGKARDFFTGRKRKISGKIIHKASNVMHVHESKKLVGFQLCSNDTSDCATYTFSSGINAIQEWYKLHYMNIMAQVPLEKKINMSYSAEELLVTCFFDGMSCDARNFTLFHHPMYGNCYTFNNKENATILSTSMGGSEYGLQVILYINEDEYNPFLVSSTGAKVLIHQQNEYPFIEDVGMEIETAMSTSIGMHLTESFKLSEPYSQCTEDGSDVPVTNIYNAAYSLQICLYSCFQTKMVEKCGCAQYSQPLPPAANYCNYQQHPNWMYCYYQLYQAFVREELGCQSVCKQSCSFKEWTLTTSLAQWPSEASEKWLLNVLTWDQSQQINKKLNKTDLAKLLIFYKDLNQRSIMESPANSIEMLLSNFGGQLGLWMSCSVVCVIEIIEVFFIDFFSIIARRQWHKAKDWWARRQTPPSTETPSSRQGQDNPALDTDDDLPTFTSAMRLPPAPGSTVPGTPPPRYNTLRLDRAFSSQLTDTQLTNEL
# B1: SPLUNC1: human SPLUNC1 (SEQ ID NO:1), 256 amino acid secreted PLUNC family protein; rSPLUNC1 is the purified V5/6His-tagged recombinant form (protein, listed as Homo sapiens)
# chain: MFQTGGLIVFYGLLAQTMAQFGGLPVPLDQTLPLNVNPALPLSPTGLAGSLTNALSNGLLSGGLLGILENLPLLDILKPGGGTSGGLLGGLLGKVTSVIPGLNNIIDIKVTDPQLLELGLVQSPDGHRLYVTIPLGIKLQVNTPLVGASLLRLAVKLDITAEILAVRDKQERIHLVLGDCTHSPGSLQISLLDGLGPLPIQGLLDSLTGILNKVLPELVQGNVCPLVNEVLRGLDITLVHDIVNMLIHGLQFVIKV
# modifications: V5/6His tag in recombinant form
# notes: rSPLUNC1 is the purified V5/6His-tagged recombinant form
# Assays:
# αβγENaC [1] = molecular target: T1, αβγENaC; experiment: Amiloride-sensitive whole cell current, two electrode voltage clamp, Xenopus laevis oocytes expressing αβγENaC; format: cell-based
# Description: Xenopus laevis oocytes were harvested and injected as described (Donaldson, et al., J. Biol. Chem. 277:8338 (2002)). Defolliculated healthy stage V-VI oocytes were injected with 0.3 ng of CRNA of each ENaC subunit. Injected oocytes were kept in modified Barth's saline (in mM: 88 NaCl, 1 KCl, 2.4 NaHCO3, 0.3 Ca(NO3)2, 0.41 CaCl2, 0.82 MgSO4, and 15 HEPES, adjusted to pH 7.35 with Tris). Oocytes were studied 24 hr after injection using the two electrode voltage clamp technique as previously described (Donaldson, et al., J. Biol. Chem. 277:8338 (2002)). Oocytes were clamped at a holding potential of −60 mV. The change in amiloride-sensitive whole cell current as an indicator of ENaC activity was determined by subtracting the corresponding current value measured in the presence of 10 μM amiloride from that measured before the application of amiloride. Where appropriate, oocytes were incubated with G22-A39 or ABC for 1 h prior to recording. In some experiments β-ENaC^S518C was used which forms ENaCs that are locked into an open probability near 1.0 by exposure to the sulthydral reactive reagent [2-(Trimethyl-ammonium)ethyl]methanethiosulphonate bromide (MTSET). MTSET was added at a concentration of 1 mM to the oocyte bath as previously described (Snyder, J. Clin. Invest. 105: 45 (2000)).
# αβγENaC [2] = molecular target: T1, αβγENaC; experiment: Amiloride-sensitive whole cell current, two electrode voltage clamp, Xenopus laevis oocytes expressing αβγENaC; format: cell-based; conditions: 100 μM in bath for 2 h; pH 6 vs 7.4
# Description for CF HBECs: To label airway surface liquid, Ringer containing Texas Red-dextran (2 mg/ml; Invitrogen) was added to human bronchial epithelial culture mucosal surfaces. Perfluorocarbon was added mucosally to prevent evaporation of the airway surface liquid and the culture placed in a chamber containing 100 μl Ringer on the stage of a Leica SP5 confocal microscope with a 63× glycerol immersion objective. 5 points per culture were scanned and an average airway surface liquid height determined. For confocal microscopy human bronchial epithelial cultures were bathed serosally in a modified Ringer solution containing (mM): 116 NaCl, 10 NaHCO3, 5.1 KCl, 1.2 CaCl2, 1.2 MgCl2, 20 TES, 10 glucose, pH 7.4). At all other times, human bronchial epithelial cultures were maintained in a modified BEGM growth medium which contained 24 mM NaHCO3 gassed with 5% CO2.
# To label the ASL, PBS containing 10 kDa Rhodamine dextran (0.2-2 mg/mL; Invitrogen, Carlsbad, Calif., USA) was added to HBEC mucosal surfaces as previously described (Tarran et al., Mol. Cell 8:149 (2001)). When added, peptides with or without 100 nM neutrophil elastase, 1 U/mL aprotinin, activated neutrophil supernatant (ANS) (Haynes et al., Am. J. Physiol. Heart Circ. Physiol. 294:H379 (2008)) or 10 μM sivelestat (Sigma-Aldrich, St Louis, Mo., USA) were added to the mucosal surface along with the Rhodamine dextran. Bumetanide (100 μM) was added to the serosal solution.
Molecule,inhibition of ENaC current by peptide in bath (αβγENaC [1]; 10 μM in oocyte bath for 1 h),effect of N-terminal biotinylation on ability to inhibit ENaC (αβγENaC [1]; n=6),"ASL absorption (CF HBECs; 10 μM apical, over 24 h)","CF ASL absorption, paired cultures (CF HBECs; 100 μM SPLUNC1 or S18)",IC50 (CF HBECs; 8 h),"CF ASL hyperabsorption in the presence of activated neutrophil supernatant (CF HBECs; 8 h ASL height, ANS)","CF ASL hyperabsorption in the presence of neutrophil elastase (CF HBECs; 8 h ASL height, neutrophil elastase)","heat stability: inhibition of CF ASL absorption after heating (CF HBECs; peptide heated to 67° C. for 30 min, also with neutrophil elastase)",inhibition of amiloride-sensitive ENaC current at pH 6 (αβγENaC [2]),activation of ENaC currents by prostasin (CAP1) and CAP2 (αβγENaC [1]; SPLUNC1 co-expressed),trypsin stimulation of ENaC activity (αβγENaC [1]; SPLUNC1 co-expressed),"inhibition of ENaC by C-terminal truncation mutants (αβγENaC [1]; co-expressed in oocytes, all p<0.0001 where significant)",CF ASL volume homeostasis in SPLUNC1 knockdown CF HBECs (CF HBECs; recombinant SPLUNC1 together with POPSO-Ringer)
GGLPVPLDQTLPLNVNPA [S18],inhibited ENaC to the same degree as the full length protein; also recorded: inhibits both basal and trypsin-stimulated ENaC current,no effect,significantly blocked ASL absorption,inhibited CF ASL absorption,600 nM,prevented CF ASL hyperabsorption,prevented CF ASL hyperabsorption,no effect on the ability of S18 to inhibit CF ASL absorption,still inhibits ENaC,–,–,–,–
B1,–,–,–,–,–,–,–,–,abolished at pH 6,significantly reduced,attenuated,Significant inhibition,required to restore CF ASL volume homeostasis
